According to US12252524B2, “GIP/GLP1 co-agonist compounds” (Eli Lilly and Company, priority 2018, dated 2025):
Numbered stars: 1 amine (or outer) side, 2 acyl side, 3 side chain; on linkers, the order of the positions; unused ones are H or OH. Square brackets hold non-standard residues; d marks the D form. Side chains are listed from the residue outwards. Peptide text beside a SMILES is read from it. * marks the point of attachment. C20 diacid = O=C(O)CCCCCCCCCCCCCCCCCCC(=O)*; C18 diacid = O=C(O)CCCCCCCCCCCCCCCCC(=O)*; αMePhe(2-F) = C[C@](N)(Cc1ccccc1F)C(=O)O; γGlu = O=C(O)[C@H](CCC(=O)[*:2])N[*:1]; αMeL = CC(C)C[C@](C)(N)C(=O)O; AEEA = NCCOCCOCC(=O)O; Aib = CC(C)(N)C(=O)O

Key:
human Gcg receptor = molecular target: T1, human Gcg receptor (Homo sapiens, UniProt P47871); assay: [125I]-Glucagon binding (SPA), human Gcg receptor; details: read-out: hGLcgR Ki, nM (SEM, n)
T1 construct: expressed in transfected cells; crude membranes
T1 sequence (P47871 26-477): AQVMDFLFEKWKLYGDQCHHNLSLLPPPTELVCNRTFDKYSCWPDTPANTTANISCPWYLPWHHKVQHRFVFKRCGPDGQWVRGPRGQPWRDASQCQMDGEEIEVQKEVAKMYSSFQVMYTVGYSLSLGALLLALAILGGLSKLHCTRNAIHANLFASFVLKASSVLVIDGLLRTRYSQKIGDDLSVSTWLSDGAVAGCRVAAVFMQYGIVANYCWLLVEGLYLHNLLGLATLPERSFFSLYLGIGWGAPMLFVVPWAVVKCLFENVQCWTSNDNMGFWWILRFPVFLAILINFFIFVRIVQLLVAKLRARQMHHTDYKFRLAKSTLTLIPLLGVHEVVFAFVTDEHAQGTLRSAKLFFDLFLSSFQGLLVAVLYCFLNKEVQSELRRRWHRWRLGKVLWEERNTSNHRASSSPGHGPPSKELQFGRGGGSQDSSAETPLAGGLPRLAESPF
How it was run: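 Cell pellets were lysed in hypotonic Tris buffer, pH 7.5, homogenized, and spun at low then high speed to give crude membranes. Ki was derived from the fitted IC50.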

human GIP receptor = molecular target: T2, human GIP receptor (Homo sapiens, UniProt P48546); assay: [125I]-GIP binding (SPA), human GIP receptor; details: read-out: hGIPR Ki, nM (SEM, n)
T2 construct: expressed in transfected cells; crude membranes
T2 sequence (P48546 22-466): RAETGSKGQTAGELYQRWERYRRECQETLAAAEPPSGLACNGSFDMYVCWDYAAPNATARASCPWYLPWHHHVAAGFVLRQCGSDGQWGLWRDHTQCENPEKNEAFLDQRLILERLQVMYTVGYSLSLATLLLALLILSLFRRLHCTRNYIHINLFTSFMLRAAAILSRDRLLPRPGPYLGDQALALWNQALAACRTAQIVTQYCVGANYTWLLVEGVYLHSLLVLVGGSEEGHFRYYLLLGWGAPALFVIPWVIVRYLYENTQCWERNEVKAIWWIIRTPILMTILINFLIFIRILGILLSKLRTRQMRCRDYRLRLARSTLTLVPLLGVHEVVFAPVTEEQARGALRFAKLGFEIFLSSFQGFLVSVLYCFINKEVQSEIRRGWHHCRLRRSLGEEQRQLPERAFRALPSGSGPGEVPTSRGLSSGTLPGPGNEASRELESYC

human GLP-1R [1] = molecular target: T3, human GLP-1R (Homo sapiens, UniProt P43220); assay: GLP-1R CHO cell β-arrestin recruitment assay; format: cell-based; design: host or cells: CHO-K1 PathHunter cells, assay-ready frozen; details: for EC50: CHO-K1 cells, PathHunter β-arrestin-2 recruitment, 0.1% casein, read-out: hGLP1R B-Arrestin2 Rel EC50 uM (SEM, n); for hGLP1R B-Arrestin2 % Top: normalized to GLP-1 maximum control
T3 sequence (P43220 24-463): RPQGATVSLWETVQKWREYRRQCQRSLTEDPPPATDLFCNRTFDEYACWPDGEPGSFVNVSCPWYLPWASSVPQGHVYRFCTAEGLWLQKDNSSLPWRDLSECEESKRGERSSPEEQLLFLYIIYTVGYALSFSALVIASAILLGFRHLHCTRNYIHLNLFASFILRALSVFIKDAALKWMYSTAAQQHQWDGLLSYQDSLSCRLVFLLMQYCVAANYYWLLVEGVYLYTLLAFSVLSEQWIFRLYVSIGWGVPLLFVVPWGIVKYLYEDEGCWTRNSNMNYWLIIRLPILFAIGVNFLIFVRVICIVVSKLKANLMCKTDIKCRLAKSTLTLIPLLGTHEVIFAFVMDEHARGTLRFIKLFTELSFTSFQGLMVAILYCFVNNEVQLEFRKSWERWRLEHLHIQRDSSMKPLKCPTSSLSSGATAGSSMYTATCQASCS
How it was run: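 PathHunter CHO-K1 cells with ProLink-tagged human GLP-1R and enzyme-acceptor-tagged β-arrestin-2 treated with serially diluted peptides in assay buffer containing 0.1% hydrolyzed casein, 90 min at 37 °C.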

human GLP-1R [2] = molecular target: T3, human GLP-1R; assay: [125I]-GLP-1 binding (SPA), human GLP-1 receptor; design: expressed in transfected cells; crude membranes; details: read-out: hGLP1R Ki, (nM) (SEM, n)
How it was run: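 Membranes: hypotonic lysis (50 mM Tris HCl, pH 7.5, protease inhibitors), Potter-Elvehjem homogenization, high-speed pellet (35000×g 1 h or 25000×g 30 min, 4° C.). Buffer: 25 mM HEPES pH 7.4, 2.5 mM CaCl2, 1 mM MgCl2. Four-parameter IC50 fit; Ki as geometric mean ± SEM.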

human GLP-1R [3] = molecular target: T3, human GLP-1R; assay: GLP-1R HEK293 cell membrane [35S]GTPγS binding assay; format: biochemical; design: expressed in transfected cells; host or cells: HEK293 cells expressing human GLP-1R; membranes; details: HEK293 cell membranes expressing human GLP-1R, [35S]GTPγS binding; read-out: hGLP1R GTPgS Rel EC50 nM (SEM, n)
How it was run: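 Membranes from HEK293 cells expressing the receptor incubated with peptide and […] [35S]GTPγS in HEPES pH 7.4 buffer with NaCl, MgCl2, saponin and BSA, 30 min at room temperature. Gαs-bound label captured by anti-Gαs antibody/SPA beads and counted; EC50 from four-parameter logistic fit.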

[4] = molecular target: T4, gastric inhibitory peptide receptor (GIPR) (Homo sapiens, UniProt P48546); assay: cAMP pharmacological functional assay in presence of casein, hGIPR; format: cell-based; details: HEK293 cells expressing hGIPR, 0.1% Casein, geometric mean; read-out: hGIPR cAMP Rel EC50 nM (SEM, n)
T4 sequence (P48546 22-466): T2 sequence (P48546 22-466)

[5] = molecular target: human GLP-1 receptor (GLP-1R) (Homo sapiens, UniProt P43220); assay: cAMP pharmacological functional assay in presence of casein, hGLP-1R; format: cell-based; details: HEK293 cells expressing hGLP-1R, 0.1% Casein, geometric mean; read-out: hGLP1R cAMP Rel EC50 nM (SEM, n)
Chain of human GLP-1 receptor (GLP-1R) (P43220 24-463): as above

SMILES	Ki (human Gcg receptor) [nM]	Ki (human GIP receptor) [nM]	EC50 (human GLP-1R [1]) [µM]	hGLP1R B-Arrestin2 % Top (human GLP-1R [1]) [%]	Ki (human GLP-1R [2]) [nM]	EC50 (human GLP-1R [3]) [nM]	EC50 [4] [nM]	EC50 [5] [nM]
CC[C@H](C)[C@H](NC(=O)[C@H](CC(C)C)NC(=O)[C@](C)(Cc1ccc(O)cc1)NC(=O)[C@H](CCC(=O)O)NC(=O)[C@@H](NC(=O)[C@H](Cc1ccccc1)NC(=O)[C@H](CCC(=O)O)NC(=O)C(C)(C)NC(=O)[C@H](CCC(N)=O)NC(=O)[C@H](C)NC(=O)[C@H](CCCCNC(=O)COCCOCCNC(=O)COCCOCCNC(=O)CC[C@H](NC(=O)CCCCCCCCCCCCCCCCCCC(=O)O)C(=O)O)NC(=O)[C@H](CCCN)NC(=O)[C@H](CC(=O)O)NC(=O)[C@H](CC(C)C)NC(=O)[C@](C)(CC(C)C)NC(=O)[C@@H](NC(=O)[C@H](CO)NC(=O)[C@H](Cc1ccc(O)cc1)NC(=O)[C@H](CC(=O)O)NC(=O)[C@H](CO)NC(=O)[C@@H](NC(=O)[C@H](Cc1ccccc1)NC(=O)[C@@H](NC(=O)CNC(=O)[C@H](CCC(=O)O)NC(=O)C(C)(C)NC(=O)[C@H](N)Cc1ccc(O)cc1)[C@@H](C)O)[C@@H](C)O)[C@@H](C)CC)[C@@H](C)CC)C(=O)N[C@@H](C)C(=O)NCC(=O)NCC(=O)N1CCC[C@H]1C(=O)N[C@@H](CO)C(=O)N[C@@H](CO)C(=O)NCC(=O)N[C@@H](C)C(=O)N1CCC[C@H]1C(=O)N1CCC[C@H]1C(=O)N1CCC[C@H]1C(=O)N[C@@H](CO)C(N)=O [Example 293]	668	0.0775	0.00719	29.5	1.64	0.368	0.0562	0.132
CC[C@H](C)[C@H](NC(=O)[C@H](CC(C)C)NC(=O)[C@H](Cc1ccc(O)cc1)NC(=O)[C@H](CCC(=O)O)NC(=O)[C@@H](NC(=O)[C@H](Cc1ccccc1)NC(=O)[C@H](C)NC(=O)C(C)(C)NC(=O)[C@H](CCC(N)=O)NC(=O)[C@H](C)NC(=O)[C@H](CCCCNC(=O)COCCOCCNC(=O)COCCOCCNC(=O)CC[C@H](NC(=O)CCCCCCCCCCCCCCCCC(=O)O)C(=O)O)NC(=O)[C@H](CCCCN)NC(=O)[C@H](CC(=O)O)NC(=O)[C@H](CC(C)C)NC(=O)[C@H](CC(C)C)NC(=O)[C@@H](NC(=O)[C@H](CO)NC(=O)[C@H](Cc1ccc(O)cc1)NC(=O)[C@H](CC(=O)O)NC(=O)[C@H](CO)NC(=O)[C@@H](NC(=O)[C@](C)(Cc1ccccc1F)NC(=O)[C@@H](NC(=O)CNC(=O)[C@H](CCC(=O)O)NC(=O)C(C)(C)NC(=O)[C@@H](N)Cc1ccc(O)cc1)[C@@H](C)O)[C@@H](C)O)[C@@H](C)CC)[C@@H](C)CC)C(=O)N[C@@H](CCC(=O)O)C(=O)NCC(=O)NCC(=O)N1CCC[C@H]1C(=O)N[C@@H](CO)C(=O)N[C@@H](CO)C(=O)NCC(N)=O [Example 302] (H-Y[Aib]EGT[αMePhe(2-F)]TSDYSILLDKK([AEEA-AEEA-γGlu-C18 diacid])AQ[Aib]AFIEYLIEGGPSSG-NH2)	18.5	0.0289	0.00219	98.4	0.617	0.268	0.0308	0.0275
CC[C@H](C)[C@H](NC(=O)[C@H](CC(C)C)NC(=O)[C@H](Cc1ccc(O)cc1)NC(=O)[C@H](CCC(=O)O)NC(=O)[C@@H](NC(=O)[C@H](Cc1ccccc1)NC(=O)[C@H](C)NC(=O)C(C)(C)NC(=O)[C@H](CCC(N)=O)NC(=O)[C@H](C)NC(=O)[C@H](CCCCNC(=O)COCCOCCNC(=O)COCCOCCNC(=O)CC[C@H](NC(=O)CCCCCCCCCCCCCCCCC(=O)O)C(=O)O)NC(=O)[C@H](CCCCN)NC(=O)[C@H](CC(=O)O)NC(=O)[C@H](CC(C)C)NC(=O)[C@H](CC(C)C)NC(=O)[C@@H](NC(=O)[C@H](CO)NC(=O)[C@H](Cc1ccc(O)cc1)NC(=O)[C@H](CC(=O)O)NC(=O)[C@H](CO)NC(=O)[C@@H](NC(=O)[C@H](Cc1ccccc1)NC(=O)[C@@H](NC(=O)CNC(=O)[C@H](CCC(=O)O)NC(=O)C(C)(C)NC(=O)[C@@H](N)Cc1ccc(O)cc1)[C@@H](C)O)[C@@H](C)O)[C@@H](C)CC)[C@@H](C)CC)C(=O)N[C@@H](CCC(=O)O)C(=O)NCC(=O)NCC(=O)N1CCC[C@H]1C(=O)N[C@@H](CO)C(=O)N[C@@H](CO)C(=O)NCC(=O)N[C@@H](C)C(=O)N1CCC[C@H]1C(=O)N1CCC[C@H]1C(=O)N1CCC[C@H]1C(=O)N[C@@H](CO)C(N)=O [Example 315]	539	0.0677	0.0199	25.4	2.28	0.601	0.0408	0.0651
CC[C@H](C)[C@H](NC(=O)[C@H](CC(C)C)NC(=O)[C@H](Cc1ccc(O)cc1)NC(=O)[C@H](CCC(=O)O)NC(=O)[C@@H](NC(=O)[C@H](Cc1ccccc1)NC(=O)[C@H](C)NC(=O)C(C)(C)NC(=O)[C@H](CCC(N)=O)NC(=O)[C@H](C)NC(=O)[C@H](CCCCNC(=O)COCCOCCNC(=O)COCCOCCNC(=O)CC[C@H](NC(=O)CCCCCCCCCCCCCCCCCCC(=O)O)C(=O)O)NC(=O)[C@H](CCCCN)NC(=O)[C@H](CC(=O)O)NC(=O)[C@H](CC(C)C)NC(=O)[C@](C)(CC(C)C)NC(=O)[C@@H](NC(=O)[C@H](CO)NC(=O)[C@H](Cc1ccc(O)cc1)NC(=O)[C@H](CC(=O)O)NC(=O)[C@H](CO)NC(=O)[C@@H](NC(=O)[C@H](Cc1ccccc1)NC(=O)[C@@H](NC(=O)CNC(=O)[C@H](CCC(=O)O)NC(=O)C(C)(C)NC(=O)[C@@H](N)Cc1ccccc1)[C@@H](C)O)[C@@H](C)O)[C@@H](C)CC)[C@@H](C)CC)C(=O)N[C@@H](CCC(=O)O)C(=O)NCC(=O)NCC(=O)N1CCC[C@H]1C(=O)N[C@@H](CO)C(=O)N[C@@H](CO)C(=O)NCC(=O)N[C@@H](C)C(=O)N1CCC[C@H]1C(=O)N1CCC[C@H]1C(=O)N1CCC[C@H]1C(=O)N[C@@H](CO)C(N)=O [Example 327] (H-F[Aib]EGTFTSDYSI[αMeL]LDKK([AEEA-AEEA-γGlu-C20 diacid])AQ[Aib]AFIEYLIEGGPSSGAPPPS-NH2; N-terminus assumed)	114	0.0667	0.00379	41.6	2.1	0.287	0.0548	0.27
CC[C@H](C)[C@H](NC(=O)[C@H](CC(C)C)NC(=O)[C@H](Cc1ccc(O)cc1)NC(=O)[C@H](CCC(=O)O)NC(=O)[C@@H](NC(=O)[C@H](Cc1ccccc1)NC(=O)[C@H](C)NC(=O)C(C)(C)NC(=O)[C@H](CCC(N)=O)NC(=O)[C@H](C)NC(=O)[C@H](CCCCNC(=O)COCCOCCNC(=O)COCCOCCNC(=O)CC[C@H](NC(=O)CCCCCCCCCCCCCCCCCCC(=O)O)C(=O)O)NC(=O)[C@H](CCCCN)NC(=O)[C@H](CC(=O)O)NC(=O)[C@H](CC(C)C)NC(=O)[C@H](CC(C)C)NC(=O)[C@@H](NC(=O)[C@H](CO)NC(=O)[C@H](Cc1ccc(O)cc1)NC(=O)[C@H](CC(=O)O)NC(=O)[C@H](CO)NC(=O)[C@@H](NC(=O)[C@](C)(Cc1ccccc1)NC(=O)[C@@H](NC(=O)CNC(=O)[C@H](CCC(=O)O)NC(=O)C(C)(C)NC(=O)[C@H](N)Cc1ccc(O)cc1)[C@@H](C)O)[C@@H](C)O)[C@@H](C)CC)[C@@H](C)CC)C(=O)N[C@@H](CCC(=O)O)C(=O)NCC(=O)NCC(=O)N1CCC[C@H]1C(=O)N[C@@H](CO)C(=O)N[C@@H](CO)C(=O)NCC(=O)N[C@@H](C)C(=O)N1CCC[C@H]1C(=O)N1CCC[C@H]1C(=O)N1CCC[C@H]1C(=O)N[C@@H](CO)C(N)=O [Example 329]	17	0.0439	0.00473	63.4	3.28	0.343	0.132	0.125
